Measured values: publication PMC12261321, “Inhibitors of the Bacterioferritin Ferredoxin Complex Dysregulate Iron Homeostasis and Kill and Biofilm-Embedded Cells” (ACS Infectious Diseases, 2025)
Values after ≈ are worked out from the molar mass of the structure shown.

Columns and labels:
A. baumannii ATCC 19606 = assay: MIC, broth microdilution in M63 media; assay type: cell-based
Description: (§1) Measurement of Minimum Inhibitory Concentrations (MIC). The MIC of compounds and select ed antibiotics against three strains of A. baumannii (5075, ATCC 17988, and ATCC 19606) were determined via the broth microdilution method according to Clinical and Laboratory Standard Instit ute (CLSI) guidelines,15 but culturing […]
(§2) To establish a 2-fold dilution series of compound, 985 μ L of diluted cells was mixed with 15 μ L of compound […]
(§3) dissolved in DMSO, such that the resultant solution had the highest concentration of compound or antibiotic tested and 1.5% DMSO. To carry out the serial dilution from the highest compound concentration, a 150 μ L solution of higher concentration compound or antibiotic was mixed with 150 μ L of cell suspension containing 1.5% DMSO in the wells of a 96 well plate.
(§4) Th e 96 well plate was in cubated for 20 hat 35 °C with continuous orbital shaking (205 cpm) in an Epoch2 microplate reader (BioTek), monitoring the growth by […]
(§5) following the OD600. […]
(§6) FFFFFF = MMMMMMAA iiii ccllccbbiiiicccciilliiMMMMMMAA+ MMMMMMBB iiii ccllccbbiiiicccciilliiMMMMMMBB S2 Time Kill Assays. Time-kill assays were performed with A. baumannii 507 5 by the broth macro- dilution method in M63- medium containing 1.5% DMSO. An overnight culture was diluted to approximately 5 x10^5 CFU/mL in fresh M63 media. The test solutions were prepared by adding compound (KM-5- 35, or KM-5- 25) dissolved in DMSO to 5 mL of diluted cell suspension to yield a solution of the desired compound concentration and 1.5% DMSO, or by the addition of antibiotic dissolved in water and a small volume of DMSO to produce the desired

A. baumannii ATCC 17978 = assay: MIC, broth microdilution in M63 media; assay type: cell-based
Description: as §1, §2, §3, §4, §5, §6

A. baumannii 5075 = assay: MIC, broth microdilution in M63 media; assay type: cell-based
Description: as §1, §2, §3, §4, §5, §6

recombinant Pa BfrB = molecular target: T1, recombinant Pa BfrB (Pseudomonas aeruginosa, UniProt Q9HY79); assay: Dissociation constant (Kd), fluorescence quenching titration of apo Pa BfrB; assay type: binding, P. aeruginosa
T1 construct: made in house; host or cells: E. coli
T1 sequence (Q9HY79 whole entry): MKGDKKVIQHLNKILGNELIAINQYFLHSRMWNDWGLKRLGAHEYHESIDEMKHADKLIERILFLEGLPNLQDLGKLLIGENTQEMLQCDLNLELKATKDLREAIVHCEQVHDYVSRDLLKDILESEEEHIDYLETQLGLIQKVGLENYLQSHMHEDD
Description: Measurement of Dissociation Constant (Kd) R ecombinant Pa BfrB was expressed in E. coli and purified as previously reported.19 Apo-BfrB (devoid of heme) was utilized for the measurements to prevent heme-driven fluorescence quenching. A 0.5 mL solution contai ning 0.01 µM apo Pa-BfrB in PBS (pH = 7.4) containing0.5% DMSO was plac ed into a 1 cm quartz cuvette wh ere it was titrated with aliq uots of compound dissolved in a 50% (v/v) PBS/DMSO solution. The fluorescence quenching brought by the addition of each aliquot was monitored with the aid of an Agilent Cary Fluorometer , with excitation at 280 nm, emission at 320- 470 nm, 10 x10 nm slit width, and an average of 5 scans per spectrum. Th e binding assay included at least 8 aliquots spanning from ~ 0.1 […]
A control titration was carried out by titrati ng compound into PBS buffer. The Kd was cal culated by fitting the data to equation S4, w here Fb is the fraction bound and Fmax is the fraction bound at saturating compound concentration.
FFbb = FFmmmmmm ? [ccccmmccccccmmcc ]? (S4) […]

[1] = Acinetobacter baumannii, ATCC19606, 20 h
[2] = Acinetobacter baumannii, ATCC17978, 20 h
[3] = Acinetobacter baumannii, 5075, 20 h

| SMILES | MIC (A. baumannii ATCC 19606; [1]) [µM] | MIC (A. baumannii ATCC 17978; [2]) [µM] | MIC (A. baumannii 5075; [3]) [µM] | Kd (recombinant Pa BfrB) [µM] | MIC (A. baumannii ATCC 19606; 20 h) [µM] | MIC (A. baumannii ATCC 17978; 20 h) [µM] | MIC (A. baumannii 5075; 20 h) [µM] | MIC, A. baumannii 19606 (A. baumannii ATCC 19606; 20 h) | MIC, A. baumannii 17978 (A. baumannii ATCC 17978; 20 h) | MIC, A. baumannii 5075 (A. baumannii 5075; 20 h) |
| --- | --- | --- | --- | --- | --- | --- | --- | --- | --- | --- |
| O=C1NC(=O)c2c(NCc3ccccc3O)cccc21 [Analog 11, 4-((2-Hydroxybenzyl)amino)isoindoline-1,3-dione] | 80 (≈ 21.5 µg/mL) | 120 (≈ 32.2 µg/mL) | 80 (≈ 21.5 µg/mL) | – | – | – | – | – | – | – |
| O=C1NC(=O)c2c(NCc3ccc(Br)cc3O)cccc21 [EB-5-61] | – | – | – | 13 ± 3 | 50 (≈ 17.4 µg/mL) | 50 (≈ 17.4 µg/mL) | 50 (≈ 17.4 µg/mL) | – | – | – |
| Cc1ccc(CNc2cccc3c2C(=O)NC3=O)c(O)c1 [EB-5-69] | – | – | – | 45 ± 6 | 80 (≈ 22.6 µg/mL) | 80 (≈ 22.6 µg/mL) | 80 (≈ 22.6 µg/mL) | – | – | – |
| Cc1cccc(CNc2cccc3c2C(=O)NC3=O)c1O [EB-5-70] | – | – | – | 17 ± 2 | 100 (≈ 28.2 µg/mL) | 100 (≈ 28.2 µg/mL) | 100 (≈ 28.2 µg/mL) | – | – | – |
| O=C1NC(=O)c2c(NCc3c(O)cccc3F)cccc21 [EB-5-71] | – | – | – | 56 ± 10 | 75 (≈ 21.5 µg/mL) | 75 (≈ 21.5 µg/mL) | 75 (≈ 21.5 µg/mL) | – | – | – |
| O=C1NC(=O)c2c(NCc3c(O)cccc3Br)cccc21 [EB-5-72] | – | – | – | 15 ± 3 | > 60 | > 60 | > 60 | – | – | – |
| O=C1NC(=O)c2c(NCc3cccc(Br)c3O)cccc21 [EB-5-73] | – | – | – | 7 ± 2 | > 40 | 40 (≈ 13.9 µg/mL) | > 40 | – | – | – |
| O=C1NC(=O)c2c(NCc3cccc(F)c3O)cccc21 [EB-5-80] | – | – | – | 49 ± 7 | > 100 | > 100 | > 100 | – | – | – |
| O=C1NC(=O)c2c(NCc3cc(F)ccc3O)cccc21 [JAG-5-7] | 60 (≈ 17.2 µg/mL) | 60 (≈ 17.2 µg/mL) | 60 (≈ 17.2 µg/mL) | 24 ± 6 | – | – | – | – | – | – |
| O=C1NC(=O)c2c(NCc3cc(Cl)ccc3O)cccc21 [KM-5-25, 4-((5-Chloro-2-hydroxybenzyl)amino)isoindoline-1,3-dione] | – | – | – | 10 ± 2 | 30 (≈ 9.08 µg/mL) | 40 (≈ 12.1 µg/mL) | 40 (≈ 12.1 µg/mL) | – | – | – |
| O=C1NC(=O)c2c(NCc3c(O)cccc3Cl)cccc21 [KM-5-29] | – | – | – | 18 ± 3 | > 60 | > 60 | > 60 | – | – | – |
| O=C1NC(=O)c2c(NCc3cccc(Cl)c3O)cccc21 [KM-5-30] | – | – | – | 11 ± 3 | > 80 | > 80 | > 80 | – | – | – |
| O=C1NC(=O)c2c(NCc3cc(Br)ccc3O)cccc21 [KM-5-35, 4-((5-Bromo-2-hydroxybenzyl)amino)isoindoline-1,3-dione] | – | – | – | 9 ± 3 | 30 (≈ 10.4 µg/mL) | 30 (≈ 10.4 µg/mL) | 40 (≈ 13.9 µg/mL) | – | – | – |
| O=C1NC(=O)c2c(NCc3cc(Cl)ccc3O)ccc(Br)c21 [SB-16-51] | – | – | – | 13 ± 2 | 15 (≈ 5.72 µg/mL) | 15 (≈ 5.72 µg/mL) | 10 (≈ 3.82 µg/mL) | – | – | – |
| CC(C)(C)c1ccc(O)c(CNc2cccc3c2C(=O)NC3=O)c1 [SB-16-53] | 30 (≈ 9.73 µg/mL) | 30 (≈ 9.73 µg/mL) | 30 (≈ 9.73 µg/mL) | 1 ± 0.2 | – | – | – | – | – | – |
| O=C1NC(=O)c2c(NCc3cc(F)ccc3O)ccc(Br)c21 [SB-16-67] | – | – | – | 7 ± 1 | 30 (≈ 11 µg/mL) | 20 (≈ 7.3 µg/mL) | 40 (≈ 14.6 µg/mL) | – | – | – |
| Cc1cc(Br)cc(CNc2cccc3c2C(=O)NC3=O)c1O [SB-16-106] | – | – | – | 3 ± 1 | 30 (≈ 10.8 µg/mL) | 15 (≈ 5.42 µg/mL) | 20 (≈ 7.22 µg/mL) | – | – | – |
| O=C1NC(=O)c2c(NCc3cc(Br)c(F)cc3O)cccc21 [SB-16-112] | – | – | – | 2 ± 0.6 | 20 (≈ 7.3 µg/mL) | 20 (≈ 7.3 µg/mL) | 20 (≈ 7.3 µg/mL) | – | – | – |
| O=C1NC(=O)c2c(NCc3cc(Br)cc(F)c3O)cccc21 [SB-16-118] | – | – | – | 4 ± 0.3 | 30 (≈ 11 µg/mL) | 30 (≈ 11 µg/mL) | 20 (≈ 7.3 µg/mL) | – | – | – |
| O=C1NC(=O)c2c(NCc3cc(Br)ccc3O)ccc(Cl)c21 [SB-16-124] | – | – | – | 11 ± 1 | 20 (≈ 7.63 µg/mL) | 20 (≈ 7.63 µg/mL) | 20 (≈ 7.63 µg/mL) | – | – | – |
| O=C1NC(=O)c2c(NCc3cc(Br)cc(O)c3O)cccc21 [SB-16-136] | – | – | – | 7 ± 1 | 30 (≈ 10.9 µg/mL) | 30 (≈ 10.9 µg/mL) | 40 (≈ 14.5 µg/mL) | – | – | – |
| O=C1NC(=O)c2c(NCc3cc(Br)c(O)cc3O)cccc21 [SB-16-137] | – | – | – | 9 ± 0.4 | > 80 | > 80 | > 80 | – | – | – |
| Cc1cc(Cl)cc(CNc2cccc3c2C(=O)NC3=O)c1O [SB-16-156] | – | – | – | 7 ± 2 | > 40 | > 40 | > 40 | – | – | – |
| O=C1NC(=O)c2c(NCc3cc(Cl)c(O)cc3O)cccc21 [SB-16-160] | – | – | – | 77 ± 10 | > 80 | > 80 | > 80 | – | – | – |
| O=C1NC(=O)c2c(NCc3cc(Cl)cc(O)c3O)cccc21 [SB-16-168] | > 40 | > 40 | 40 (≈ 12.7 µg/mL) | 12 ± 2 | – | – | – | – | – | – |
| Cc1cc(CNc2cccc3c2C(=O)NC3=O)c(O)cc1Br [SB-16-183] | – | – | – | 3 ± 0.6 | > 20 | 20 (≈ 7.22 µg/mL) | 20 (≈ 7.22 µg/mL) | – | – | – |
| O=C1NC(=O)c2c(NCc3cc(Br)cc(O)c3O)ccc(Br)c21 [SB-16-250] | – | – | – | 15 ± 3 | > 20 | > 20 | > 20 | – | – | – |
| O=C1NC(=O)c2c(NCc3ccc4c(c3)COC4)cccc21 [SB-17-80] | – | – | – | 11 ± 3 | – | – | – | Not active | Not active | Not active |
| O=C1NC(=O)c2c(NCc3cccc4c3CCN4)cccc21 [SB-17-140] | > 100 | > 100 | > 100 | 37 ± 1 | – | – | – | – | – | – |
